Results from patent US10405547B2, “Substituted cyclic amides as herbicides” (FMC Corporation, priority 2015, dated 2019).

Key:
Type in all cases: in vivo
[1] = test system: barnyardgrass (Echinochloa crus-galli); experiment: Test A preemergence, barnyardgrass; conditions: 0 to 100 scale (0 no effect, 100 complete control)
Method in brief: (§1)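 Injury scores (0 no effect, 100 complete control) were assigned by visually comparing treated with untreated plants after about 10 days of greenhouse growth. Seeds for soil treatment were sown into a loam and sand blend, while plants for foliar treatment grew in pots of that same blend.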

kochia (Kochia scoparia) [2] = experiment: Test A preemergence, kochia; conditions: 0 to 100 scale (0 no effect, 100 complete control)
Method in brief: as §1

[3] = test system: sedge, umbrella (small-flower umbrella sedge, Cyperus difformis); experiment: Test B flooded paddy test, umbrella sedge; conditions: applied to paddy water, visual rating after 13 to 15 days, scale 0 (no effect) to 100 (complete control)
Source text: (§2) At time of treatment, test pots were flooded to 3 cm above the soil surface, treated by application of test compounds directly to the paddy water, and then maintained at that water depth for the duration of the test. Treated plants and controls were maintained in a greenhouse for 13 to 15 days, after which time all species were compared to controls and visually evaluated. […] A dash (-) response means no test result.

kochia (Kochia scoparia) [4] = experiment: Test A postemergence, kochia; conditions: visual injury, 0 to 100 scale (0 no effect, 100 complete control), approximately 10 days
Method in brief: as §1

[5] = test system: foxtail, giant (Setaria faberii); experiment: Test A preemergence, giant foxtail; conditions: 0 to 100 scale (0 no effect, 100 complete control)
Method in brief: as §1

[6] = test system: ragweed (common ragweed, Ambrosia elatior); experiment: Test A postemergence, ragweed; conditions: visual injury, 0 to 100 scale (0 no effect, 100 complete control), approximately 10 days
Method in brief: as §1

[7] = test system: barnyardgrass (Echinochloa crus-galli); experiment: Test B flooded paddy test, barnyardgrass; conditions: applied to paddy water, visual rating after 13 to 15 days, scale 0 (no effect) to 100 (complete control)
Source text: as §2

[8] = test system: pigweed (Amaranthus retroflexus); experiment: Test A preemergence, pigweed; conditions: 0 to 100 scale (0 no effect, 100 complete control)
Method in brief: as §1

[9] = test system: pigweed (Amaranthus retroflexus); experiment: Test A postemergence, pigweed; conditions: visual injury, 0 to 100 scale (0 no effect, 100 complete control), approximately 10 days
Method in brief: as §1

[10] = test system: foxtail, giant (Setaria faberii); experiment: Test A postemergence, giant foxtail; conditions: visual injury, 0 to 100 scale (0 no effect, 100 complete control), approximately 10 days
Method in brief: as §1

[11] = test system: blackgrass (Alopecurus myosuroides); experiment: Test A postemergence, blackgrass; conditions: visual injury, 0 to 100 scale (0 no effect, 100 complete control), approximately 10 days
Method in brief: as §1

[12] = test system: wheat (Triticum aestivum); experiment: Test A postemergence, wheat; conditions: visual injury, 0 to 100 scale (0 no effect, 100 complete control), approximately 10 days
Method in brief: as §1

[13] = test system: galium (catchweed bedstraw, Galium aparine); experiment: Test A postemergence, galium; conditions: visual injury, 0 to 100 scale (0 no effect, 100 complete control), approximately 10 days
Method in brief: as §1

[14] = test system: barnyardgrass (Echinochloa crus-galli); experiment: Test A postemergence, barnyardgrass; conditions: visual injury, 0 to 100 scale (0 no effect, 100 complete control), approximately 10 days
Method in brief: as §1

[15] = test system: ducksalad (Heteranthera limosa); experiment: Test B flooded paddy test, ducksalad; conditions: applied to paddy water, visual rating after 13 to 15 days, scale 0 (no effect) to 100 (complete control)
Source text: as §2

corn (Zea mays) = experiment: Test A postemergence, corn; conditions: visual injury, 0 to 100 scale (0 no effect, 100 complete control), approximately 10 days
Method in brief: as §1

[16] = test system: ryegrass, Italian (Lolium multiflorum); experiment: Test A postemergence, Italian ryegrass; conditions: visual injury, 0 to 100 scale (0 no effect, 100 complete control), approximately 10 days
Method in brief: as §1

rice (Oryza sativa) = experiment: Test B flooded paddy test, rice; conditions: applied to paddy water, visual rating after 13 to 15 days, scale 0 (no effect) to 100 (complete control)
Source text: as §2

[17] = test system: ryegrass, Italian (Lolium multiflorum); experiment: Test A preemergence, Italian ryegrass; conditions: 0 to 100 scale (0 no effect, 100 complete control)
Method in brief: as §1

[18] = test system: ragweed (common ragweed, Ambrosia elatior); experiment: Test A preemergence, ragweed; conditions: 0 to 100 scale (0 no effect, 100 complete control)
Method in brief: as §1

| SMILES | Plant response rating, Barnyardgrass ([1]; 125 g ai/ha) | Plant response rating, Barnyardgrass ([1]; 500 g ai/ha) | Plant response rating, Kochia (kochia (Kochia scoparia) [2]; 125 g ai/ha) | Plant response rating, Kochia (kochia (Kochia scoparia) [4]; 125 g ai/ha) | Plant response rating, Kochia (kochia (Kochia scoparia) [4]; 500 g ai/ha) | Plant response rating, Foxtail, Giant ([5]; 125 g ai/ha) | Plant response rating, Foxtail, Giant ([5]; 500 g ai/ha) | Plant response rating, Ragweed ([6]; 125 g ai/ha) | Plant response rating, Ragweed ([6]; 500 g ai/ha) | Plant response rating, Pigweed ([8]; 125 g ai/ha) | Plant response rating, Pigweed ([8]; 500 g ai/ha) | Plant response rating, Pigweed ([9]; 125 g ai/ha) | Plant response rating, Pigweed ([9]; 500 g ai/ha) | Plant response rating, Foxtail, Giant ([10]; 125 g ai/ha) | Plant response rating, Foxtail, Giant ([10]; 500 g ai/ha) | Plant response rating, Blackgrass ([11]; 125 g ai/ha) | Plant response rating, Blackgrass ([11]; 500 g ai/ha) | Plant response rating, Wheat ([12]; 125 g ai/ha) | Plant response rating, Wheat ([12]; 500 g ai/ha) | Plant response rating, Galium ([13]; 125 g ai/ha) | also measured |
| --- | --- | --- | --- | --- | --- | --- | --- | --- | --- | --- | --- | --- | --- | --- | --- | --- | --- | --- | --- | --- | --- |
| C[Si](C)(C)C#Cc1cccc(C2CNC(=O)C2C(=O)Nc2cccc(F)c2F)c1 (centres unmarked) [Compound 33] | 60 | 80 | 0 | 0 | 40 | 60 | 80 | 0 | 0 | 0 | 0 | 0 | 0 | 0 | 50 | 0 | 0 | 0 | 0 | 0 | Plant response rating, Kochia (kochia (Kochia scoparia) [2]; 500 g ai/ha): 0; Plant response rating, Sedge, Umbrella (Flood) ([3]; 250 g ai/ha): 0; Plant response rating, Barnyardgrass (Flood) ([7]; 250 g ai/ha): 0; Plant response rating, Galium ([13]; 500 g ai/ha): 20; Plant response rating, Barnyardgrass ([14]; 125 g ai/ha): 0; Plant response rating, Barnyardgrass ([14]; 500 g ai/ha): 50; Plant response rating, Ducksalad (Flood) ([15]; 250 g ai/ha): 50; Plant response rating, Corn (corn (Zea mays); 125 g ai/ha): 0; Plant response rating, Corn (corn (Zea mays); 500 g ai/ha): 0; Plant response rating, Ryegrass, Italian ([16]; 125 g ai/ha): 0; Plant response rating, Ryegrass, Italian ([16]; 500 g ai/ha): 0; Plant response rating, Rice (Flood) (rice (Oryza sativa); 250 g ai/ha): 0; Plant response rating, Ryegrass, Italian ([17]; 125 g ai/ha): 0; Plant response rating, Ryegrass, Italian ([17]; 500 g ai/ha): 0; Plant response rating, Ragweed ([18]; 125 g ai/ha): 0; Plant response rating, Ragweed ([18]; 500 g ai/ha): 0 |
| O=C1NCC(c2ccccc2Cn2ccc(C(F)(F)F)n2)C1C(=O)Nc1ccc(F)c(F)c1F (centres unmarked) [Compound 58] | 30 | 90 | 0 | 0 | 20 | 60 | 90 | 0 | 0 | 0 | 0 | 0 | 0 | 30 | 60 | 0 | 0 | 0 | 0 | 0 | Plant response rating, Sedge, Umbrella (Flood) ([3]; 250 g ai/ha): 0; Plant response rating, Barnyardgrass (Flood) ([7]; 250 g ai/ha): 0; Plant response rating, Galium ([13]; 500 g ai/ha): 20; Plant response rating, Barnyardgrass ([14]; 125 g ai/ha): 0; Plant response rating, Barnyardgrass ([14]; 500 g ai/ha): 60; Plant response rating, Ducksalad (Flood) ([15]; 250 g ai/ha): 0; Plant response rating, Corn (corn (Zea mays); 125 g ai/ha): 0; Plant response rating, Corn (corn (Zea mays); 500 g ai/ha): 0; Plant response rating, Ryegrass, Italian ([16]; 125 g ai/ha): 0; Plant response rating, Ryegrass, Italian ([16]; 500 g ai/ha): 0; Plant response rating, Rice (Flood) (rice (Oryza sativa); 250 g ai/ha): 0; Plant response rating, Ryegrass, Italian ([17]; 125 g ai/ha): 0; Plant response rating, Ryegrass, Italian ([17]; 500 g ai/ha): 20; Plant response rating, Ragweed ([18]; 125 g ai/ha): 0; Plant response rating, Ragweed ([18]; 500 g ai/ha): 0 |
| O=C1NCC(c2cccc(OCc3ccccc3)c2)C1C(=O)Nc1ccc(F)c(F)c1F (centres unmarked) [Compound 66] | 0 | 0 | 0 | 0 | 0 | 0 | 0 | 0 | 0 | 0 | 0 | 0 | 0 | 0 | 0 | 0 | 0 | 0 | 0 | 0 | Plant response rating, Kochia (kochia (Kochia scoparia) [2]; 500 g ai/ha): 0; Plant response rating, Sedge, Umbrella (Flood) ([3]; 500 g ai/ha): 0; Plant response rating, Barnyardgrass (Flood) ([7]; 500 g ai/ha): 0; Plant response rating, Galium ([13]; 500 g ai/ha): 0; Plant response rating, Barnyardgrass ([14]; 125 g ai/ha): 0; Plant response rating, Barnyardgrass ([14]; 500 g ai/ha): 0; Plant response rating, Ducksalad (Flood) ([15]; 500 g ai/ha): 0; Plant response rating, Corn (corn (Zea mays); 125 g ai/ha): 0; Plant response rating, Corn (corn (Zea mays); 500 g ai/ha): 0; Plant response rating, Ryegrass, Italian ([16]; 125 g ai/ha): 0; Plant response rating, Ryegrass, Italian ([16]; 500 g ai/ha): 0; Plant response rating, Rice (Flood) (rice (Oryza sativa); 500 g ai/ha): 0; Plant response rating, Ryegrass, Italian ([17]; 125 g ai/ha): 0; Plant response rating, Ryegrass, Italian ([17]; 500 g ai/ha): 0; Plant response rating, Ragweed ([18]; 125 g ai/ha): 0; Plant response rating, Ragweed ([18]; 500 g ai/ha): 0 |
| O=C1NCC(c2cccc(Oc3ncc(F)cn3)c2)C1C(=O)Nc1cccc(F)c1F (single isomer, unassigned) [Compound 37] | 90 | 90 | 0 | 0 | 50 | 90 | 100 | 20 | 70 | 60 | 80 | 40 | 70 | 70 | 90 | 40 | 70 | 20 | 70 | 50 | Plant response rating, Kochia (kochia (Kochia scoparia) [2]; 500 g ai/ha): 70; Plant response rating, Sedge, Umbrella (Flood) ([3]; 250 g ai/ha): 0; Plant response rating, Barnyardgrass (Flood) ([7]; 250 g ai/ha): 30; Plant response rating, Galium ([13]; 500 g ai/ha): 70; Plant response rating, Barnyardgrass ([14]; 125 g ai/ha): 90; Plant response rating, Barnyardgrass ([14]; 500 g ai/ha): 100; Plant response rating, Ducksalad (Flood) ([15]; 250 g ai/ha): 100; Plant response rating, Corn (corn (Zea mays); 125 g ai/ha): 70; Plant response rating, Corn (corn (Zea mays); 500 g ai/ha): 90; Plant response rating, Ryegrass, Italian ([16]; 125 g ai/ha): 0; Plant response rating, Ryegrass, Italian ([16]; 500 g ai/ha): 60; Plant response rating, Rice (Flood) (rice (Oryza sativa); 250 g ai/ha): 20; Plant response rating, Ryegrass, Italian ([17]; 125 g ai/ha): 20; Plant response rating, Ryegrass, Italian ([17]; 500 g ai/ha): 50; Plant response rating, Ragweed ([18]; 125 g ai/ha): 0; Plant response rating, Ragweed ([18]; 500 g ai/ha): 80 |
